Columns and labels:
Format in all cases: in vivo
[1] = system: canarygrass (Phalaris minor); assay: Test B postemergence plant response; details: for Plant response rating, Canarygrass: Postemergence
Summary of the method: (§1)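 Plants at the 1- to 4-leaf stage (2 to 18 cm tall), grown in pots of peat moss/vermiculite medium with wetting agent and starter nutrients, received postemergence applications of test chemicals. After 13 to 15 days in a greenhouse, injury was rated visually against untreated controls on a 0 (no effect) to 100 (complete control) scale.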

[2] = system: windgrass (Apera spica-venti); assay: Test B postemergence plant response; details: for Plant response rating, Windgrass: Postemergence
Summary of the method: as §1

[3] = system: chickweed (Stellaria media); assay: Test B postemergence plant response; details: for Plant response rating, Chickweed: Postemergence
Summary of the method: as §1

[4] = system: winter barley (Hordeum vulgare); assay: Test B postemergence plant response; details: for Plant response rating, Barley: Postemergence
Summary of the method: as §1

[5] = system: green foxtail (Setaria viridis); assay: Test B pre-/postemergence plant response; details: for Plant response rating, Foxtail, Green: Postemergence
Summary of the method: (§2)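 Seeds were sown in loam soil/sand blend and treated preemergence with compound in non-phytotoxic solvent mixture containing surfactant; postemergence sprays, same formulation, went onto plants 2 to 18 cm (1- to 4-leaf stage) in peat-based planting medium. Greenhouse 13 to 15 days, then visual rating versus untreated controls, 0 (no effect) to 100 (complete control).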

[6] = system: corn (Zea mays); assay: Test B pre-/postemergence plant response; details: for Plant response rating, Corn: Postemergence
Summary of the method: as §2

[7] = system: goosegrass (Eleusine indica); assay: Test B pre-/postemergence plant response; details: for Plant response rating, Goosegrass: Postemergence
Summary of the method: as §2

[8] = system: yellow nutsedge (Cyperus esculentus); assay: Test B pre-/postemergence plant response; details: for Plant response rating, Nutsedge, Yellow: Postemergence
Summary of the method: as §2

[9] = system: giant foxtail (Setaria faberii); assay: Test B pre-/postemergence plant response; details: for Plant response rating, Foxtail, Giant: Postemergence
Summary of the method: as §2

[10] = system: pigweed (Amaranthus retroflexus); assay: Test B pre-/postemergence plant response; details: for Plant response rating, Pigweed: Postemergence
Summary of the method: as §2

[11] = system: soybean (Glycine max); assay: Test B pre-/postemergence plant response; details: for Plant response rating, Soybean: Postemergence
Summary of the method: as §2

[12] = system: lambsquarters (Chenopodium album); assay: Test B pre-/postemergence plant response; details: for Plant response rating, Lambsquarters: Postemergence
Summary of the method: as §2

[13] = system: johnsongrass (Sorghum halepense); assay: Test B pre-/postemergence plant response; details: for Plant response rating, Johnsongrass: Postemergence
Summary of the method: as §2

[14] = system: velvetleaf (Abutilon theophrasti); assay: Test B pre-/postemergence plant response; details: for Plant response rating, Velvetleaf: Postemergence
Summary of the method: as §2

[15] = 62 g ai/ha, postemergence, 0 is no effect, 100 is complete control, 13 to 15 days
[16] = 31 g ai/ha, 0 to 100 scale (0 no effect, 100 complete control)
[17] = 125 g ai/ha, scale 0 to 100 (0 no effect, 100 complete control)
[18] = 250 g ai/ha, scale 0 to 100 (0 no effect, 100 complete control), 13 to 15 days

In the case of `CCCn1c(-c2cccc(C(F)(F)F)c2)ncc(C(=O)C2=C(O)CCCC2=O)c1=O` [Compound 155], the “Canarygrass plant response rating (0 to 100 scale)” value [1, 15] was 35, the “Plant response rating, Canarygrass” value [1, 16] was 10 and the “Plant response rating, Canarygrass” value [1, 17] was 50. The “Plant response rating, Canarygrass” value [1, 18] was 65, the “Windgrass plant response rating (0 to 100 scale)” value [2, 15] was 55 and the “Plant response rating, Windgrass” value [2, 16] was 50. For the same molecule, the “Plant response rating, Windgrass” value [2, 17] was 70, the “Plant response rating, Windgrass” value [2, 18] was 85 and the “Chickweed plant response rating (0 to 100 scale)” value [3, 15] was 100. For the same molecule, the “Plant response rating, Chickweed” value [3, 16] was 100, the “Plant response rating, Chickweed” value [3, 17] was 100 and the “Plant response rating, Chickweed” value [3, 18] was 100. For the same molecule, the “Barley plant response rating (0 to 100 scale)” value [4, 15] was 30, the “Plant response rating, Barley” value [4, 16] was 30 and the “Plant response rating, Barley” value [4, 17] was 45. The “Plant response rating, Barley” value [4, 18] was 85, the “Foxtail, Green plant response rating (0 to 100 scale)” value [5, 15] was 50 and the “Plant response rating, Foxtail, Green” value [5, 16] was 25. The “Plant response rating, Foxtail, Green” value [5, 17] was 80, the “Plant response rating, Foxtail, Green” value [5, 18] was 80 and the “Corn plant response rating (0 to 100 scale)” value [6, 15] was 25. For the same molecule, the “Plant response rating, Corn” value [6, 16] was 5, the “Plant response rating, Corn” value [6, 17] was 40 and the “Plant response rating, Corn” value [6, 18] was 65. The “Goosegrass plant response rating (0 to 100 scale)” value [7, 15] was 80, the “Plant response rating, Goosegrass” value [7, 16] was 65 and the “Plant response rating, Goosegrass” value [7, 17] was 85. The “Plant response rating, Goosegrass” value [7, 18] was 98, the “Nutsedge, Yellow plant response rating (0 to 100 scale)” value [8, 15] was 45 and the “Plant response rating, Nutsedge, Yellow” value [8, 16] was 20. The “Plant response rating, Nutsedge, Yellow” value [8, 17] was 70, the “Plant response rating, Nutsedge, Yellow” value [8, 18] was 75 and the “Foxtail, Giant plant response rating (0 to 100 scale)” value [9, 15] was 80. For the same molecule, the “Plant response rating, Foxtail, Giant” value [9, 16] was 65, the “Plant response rating, Foxtail, Giant” value [9, 17] was 90 and the “Plant response rating, Foxtail, Giant” value [9, 18] was 95. The “Pigweed plant response rating (0 to 100 scale)” value [10, 15] was 100, the “Plant response rating, Pigweed” value [10, 16] was 98 and the “Plant response rating, Pigweed” value [10, 17] was 100. The “Plant response rating, Pigweed” value [10, 18] was 100, the “Soybean plant response rating (0 to 100 scale)” value [11, 15] was 95 and the “Plant response rating, Soybean” value [11, 16] was 95. For the same molecule, the “Plant response rating, Soybean” value [11, 17] was 100, the “Plant response rating, Soybean” value [11, 18] was 100 and the “Lambsquarters plant response rating (0 to 100 scale)” value [12, 15] was 100. The “Plant response rating, Lambsquarters” value [12, 16] was 98, the “Plant response rating, Lambsquarters” value [12, 17] was 100 and the “Plant response rating, Lambsquarters” value [12, 18] was 100. For the same molecule, the “Johnsongrass plant response rating (0 to 100 scale)” value [13, 15] was 40, the “Plant response rating, Johnsongrass” value [13, 16] was 10 and the “Plant response rating, Johnsongrass” value [13, 17] was 65. The “Plant response rating, Johnsongrass” value [13, 18] was 70, the “Velvetleaf plant response rating (0 to 100 scale)” value [14, 15] was 100 and the “Plant response rating, Velvetleaf” value [14, 16] was 100. The “Plant response rating, Velvetleaf” value [14, 17] was 100 and the “Plant response rating, Velvetleaf” value [14, 18] was 100.

— patent publication US8952024B2, “Herbicidal pyrimidone derivatives” (E I du Pont de Nemours and Company, priority 2009, dated 2015)
